How the values were obtained:
gut microbiome [1] = assay: Non pH-controlled anaerobic faecal cultures: gas production; assay type: cell-based; conditions: 6 donors, FIG. 1A
Description: Non pH-controlled, anaerobic, faecal cultures were investigated to evaluate the rate of gas production and cumulative gas production over 24 h in the presence of each test substrate.
(§1) All carbohydrates were tested in parallel, using the same faecal sample from a healthy donor. Fermentations were repeated using the faecal samples of each of 6 donors. Faeces in the absence of test substrate were used as the negative control in each run.

gut microbiome [2] = assay: pH-controlled anaerobic faecal cultures: organic acid production; assay type: cell-based; conditions: FIG. 3C
Description: pH-controlled, anaerobic, faecal cultures were carried out to evaluate the impact of each test carbohydrate on gut microbiome composition and activity (organic acid production). The test carbohydrates were as follows: Inulin, Fructooligosaccharides (FOS), Xylooligosaccharides (XOS), gentiooligosaccharides (GeOS) and cellobiose.
as §1

SMILES: O=C[C@H](O)[C@@H](O)[C@H](O[C@@H]1O[C@H](CO)[C@@H](O)[C@H](O)[C@H]1O)[C@H](O)CO [Cellobiose, cellobiose]
- rate of gas production (gut microbiome [1]): significantly higher compared to all test substrates
- lactate production / accumulation (gut microbiome [2]): high levels

Reference: patent publication US20260014192A1, “COMPOSITIONS AND USES THEREOF” (Optibiotix Limited, priority 2022, published 2026)
